In ChEMBL document CHEMBL5579875, “Discovery of VU6008677: A Structurally Distinct Tricyclic M4 Positive Allosteric Modulator with Improved CYP450 Profile” (ACS Med Chem Lett, 2024) one finds Fu data, which are given here for two molecules.

The nature of data set [1]: Plasma protein binding in human assessed as unbound fraction at 5 uM incubated for 6 hrs by LC-MS/MS analysis. Format: ADME, cell-free.
A short description of data set [2]: Plasma protein binding in rat assessed as unbound fraction at 5 uM incubated for 6 hrs by LC-MS/MS analysis. Format: ADME, cell-free.
Data set [3] can be described thus: Unbound fraction in rat brain homogenate at 1 uM incubated for 6 hrs by LC-MS/MS analysis. Format: ADME, tissue-based.

Take `Cc1nc2sc3c(NC4CC4)ncnc3c2c(C)c1Cl.Cl`: the Fu in data set [1] is given as 0.004; in data set [2] it was 0.01.
On to `Cc1c(Cl)cnc2sc3c(NC4CC(c5ccncc5)C4)ncnc3c12` (stereo not given), for which the Fu in data set [1] was 0.01; in data set [3], 0.005; in data set [2], 0.01.
